Earlier results on one substance are cited in paper PMC3473115 (Accounts of chemical research, 2012).

The IC50 is the midpoint of a concentration-inhibition curve.

This data set relates to HIV-1 gp41. The note with it: read-out: CCF IC50; cell-cell fusion assay.

Regarding H2N-Trp-[Trp]-Leu-OH [compound 5], the IC50 was 5 µM.
